For 28 compounds, Ki results are on record in US7863271B2, “2-aminobenzoxazole carboxamides as 5HT3 modulators” (Albany Molecular Research, Inc., priority 2006, dated 2011).

Counter-ions that a name gives are not always drawn.

A word on the Ki: it is a dissociation constant, usually derived from enzyme kinetics or from competition with a known ligand.

For the first assay, the target named is T1, 5-HT3 (Homo sapiens, UniProt P46098).
T1 sequence (P46098 24-478): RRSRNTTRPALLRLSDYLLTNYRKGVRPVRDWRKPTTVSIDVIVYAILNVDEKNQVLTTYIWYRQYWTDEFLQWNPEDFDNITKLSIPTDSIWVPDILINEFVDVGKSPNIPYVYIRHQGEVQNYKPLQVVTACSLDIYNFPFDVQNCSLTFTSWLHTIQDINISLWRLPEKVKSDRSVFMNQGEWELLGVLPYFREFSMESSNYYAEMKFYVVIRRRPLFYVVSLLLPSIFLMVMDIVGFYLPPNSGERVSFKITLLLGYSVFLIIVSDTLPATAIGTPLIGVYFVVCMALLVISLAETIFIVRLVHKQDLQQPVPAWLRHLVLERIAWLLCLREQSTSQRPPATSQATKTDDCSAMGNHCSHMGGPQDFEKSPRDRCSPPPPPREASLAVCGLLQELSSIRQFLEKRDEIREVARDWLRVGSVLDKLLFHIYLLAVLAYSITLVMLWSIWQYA
Nature of the assay: Compound affinity for the human 5-HT3 receptor (Assay B), SPA radioligand binding with [9-methyl-3H]BRL-43694. Details: purchased Perkin Elmer.
Conditions: not given
On the procedure:
Compound Affinity for the human 5-HT3 Receptor (Assay B)
The relative affinity of the various compounds for the human 5-HT3 receptor was measured in a radioligand binding assay, using a scintillation proximity assay (SPA) format. Test compounds were dissolved to 10 mM in 100% DMSO, then serially diluted at 10× assay concentrations in 100% DMSO in 96-well polypropylene plates and further diluted to 4× assay concentrations with the assay buffer. […] Binding reactions were set up in wells of PicoPlates-96 (Perkin Elmer) by adding consecutively 50 μL of each competing compound or buffer, SPA beads, the radioligand and 5-HT3 receptor membranes. After 60-min incubation at room temperature on a Nutator mixer, plates were centrifuged for 15 min at 1,500 rpm, followed by incubation in the dark for 30 min. Radioactivity was counted in the TopCount microplate counter (Perkin Elmer) for 5 min. […] Specific binding was determined by subtracting nonspecific binding from total binding. All experiments were performed in duplicate using ten concentrations of a competing ligand, with ondansetron included as a control in every run. IC50 values were determined from specific binding data using XLfit4.1 curve fitting software from IDBS Ltd. Ki values were then calculated from the Cheng-Prusoff equation.
For the compound `CN1C[C@H]2C[C@H](NC(=O)c3cccc4oc(Nc5ccccc5)nc34)C[C@@H](C1)N2C` [Example 52, Exo-N-(3,9-Dimethyl-3,9-diazabicyclo[3.3.1]nonan-7-yl)-2-(phenylamino)benzoxazole-4-carboxamide Hydrochloride], the Ki came to 27.6 nM.

Staying with this assay, now noted: Assay B (method B unless otherwise annotated); read-out: 5-HT3 Ki.
Turning to `C[C@@H]1CNC[C@@H](C)N1c1nc2c(C(=O)NC3CC4CCCC(C3)N4C)cccc2o1` (stereo partly drawn) [Example 69, Endo-N-(9-Methyl-9-azabicyclo[3.3.1]nonan-3-yl)-2-((2R,6R)-2,6-dimethylpiperazin-1-yl)benzoxazole-4-carboxamide Hydrochloride], the Ki amounted to 32.7 nM.

For `Cc1cc(C(=O)N[C@H]2C[C@H]3CCC[C@@H](C2)N3C)c2nc(N)oc2c1` [Example 129, Endo-2-amino-6-methyl-N-(9-Methyl-9-azabicyclo[3.3.1]nonan-3-yl)benzoxazole-4-carboxamide Hydrochloride], the Ki is 10.7 nM.

Take “Endo-N-(9-Methyl-9-azabicyclo[3.3.1]nonan-3-yl)-2-((3aS,6aS)-hexahydropyrrolo[3,4-b]pyrrol-5(1H)-yl)benzoxazole-4-carboxamide Hydrochloride [Example 46]”: the Ki is 284 nM. `CN1[C@@H]2CCC[C@H]1C[C@@H](NC(=O)c1cccc3oc(N4CCC5(CC4)OCCO5)nc13)C2` [Example 91, Endo-N-(9-Methyl-9-azabicyclo[3.3.1]nonan-3-yl)-2-(1,4-dioxa-8-azaspiro[4.5]decan-8-yl)benzoxazole-4-carboxamide Hydrochloride]: the Ki was determined as 14.5 nM.

For `CN(C)C(=O)CNc1nc2c(C(=O)N[C@H]3C[C@H]4CCC[C@@H](C3)N4C)cccc2o1` [Example 47, Endo-N-(9-Methyl-9-azabicyclo[3.3.1]nonan-3-yl)-2-(2-(dimethylamino)-2-oxoethylamino)benzoxazole-4-carboxamide Dihydrochloride], the Ki came out at 137 nM. Same read-out and setting: with `O=C(N[C@@H]1CN2CCC1CC2)c1cccc2oc(N3CCCCC3)nc12` [Example 4, (S)—N-(quinuclidine-8-yl)-2-(piperidin-1-yl)benzoxazole-4-carboxamide hydrochloride] the figure was 34.2 nM; with `CC1CN(C(=O)N2CCCC2)CC(C)N1c1nc2c(C(=O)NC3CC4CCCC(C3)N4)cccc2o1` [Example 146, Endo-N-(9-azabicyclo[3.3.1]nonan-3-yl)-2-((2S,6S)-2,6-dimethyl-4-(pyrrolidine-1-carbonyl)piperazin-1-yl)benzoxazole-4-carboxamide hydrochloride], 32.2 nM. Same read-out and setting: in the case of `CC(O)CCNc1nc2c(C(=O)N[C@H]3C[C@H]4CCC[C@@H](C3)N4C)cccc2o1` (stereo partly drawn) [Example 61, Endo-N-(9-methyl-9-azabicyclo[3.3.1]nonan-3-yl)-2-(3-hydroxybutylamino)benzoxazole-4-carboxamide Hydrochloride] it was 19.9 nM; in that of `CC(C)C(=O)N1C[C@H](C)N(c2nc3c(C(=O)NC4CC5CCCC(C4)N5C)cccc3o2)[C@@H](C)C1` (stereo partly drawn) [Example 135, Endo-N-(9-methyl-9-azabicyclo[3.3.1]nonan-3-yl)-2-((2S,6S)-4-isobutyryl-2,6-dimethylpiperazin-1-yl)benzoxazole-4-carboxamide Hydrochloride], 2 nM; in that of `C[C@H]1CN(C)C[C@H](C)N1c1nc2c(C(=O)NC3CC4CCCC(C3)N4C)cccc2o1` (stereo partly drawn) [Example 122, Endo-N-(9-methyl-9-azabicyclo[3.3.1]nonan-3-yl)-2-((2S,6S-2,4,6-trimethylpiperazin-1-yl)benzoxazole-4-carboxamide Hydrochloride], 2.3 nM.

As for `C[C@H]1CN(C(=O)c2ccccc2)C[C@H](C)N1c1nc2c(C(=O)NC3CC4CCCC(C3)N4C)cccc2o1` (stereo partly drawn) [Example 117, Endo-N-(9-methyl-9-azabicyclo[3.3.1]nonan-3-yl)-2-((2S,6S)-4-benzoyl-2,6-dimethylpiperazin-1-yl)benzoxazole-4-carboxamide Hydrochloride], the Ki worked out at 2.3 nM. For `CN1C2CCCC1CC(NC(=O)c1cccc3oc(N4CCOC[C@@H]4C(C)(C)C)nc13)C2` (stereo partly drawn) [Example 68, Endo-N-(9-Methyl-9-azabicyclo[3.3.1]nonan-3-yl)-2-((S)-3-tert-butylmorpholino)benzoxazole-4-carboxamide Hydrochloride], the Ki was found to be 2 nM. The same measure, in the same setting: with `CN1CCN(c2nc3c(C(=O)N[C@H]4C[C@H]5CCC[C@@H](C4)N5C)cccc3o2)CC1` [Example 1, Endo-N-(9-Methyl-9-azabicyclo[3.3.1]non-3-yl)-2-(4-methylpiperazin-1-yl)benzoxazole-4-carboxamide Dihydrochloride] the figure was 85 nM; with `CN1[C@@H]2COC[C@H]1C[C@@H](NC(=O)c1cccc3oc(N4CCOCC4)nc13)C2` [Example 44, Endo-N-(9-Methyl-3-oxa-9-azabicyclo[3.3.1]nonan-7-yl)-2-morpholinobenzoxazole-4-carboxamide Hydrochloride], 323 nM.

`CN1C2CCCC1CC(NC(=O)c1cc(Cl)cc3oc(N4CCOC[C@@H]4C(C)(C)C)nc13)C2` (stereo partly drawn) [Example 80, Endo N-(9-Methyl-9-azabicyclo[3.3.1]nonan-3-yl)-2-((S)-3-tert-butylmorpholino)-6-chloro-benzoxazole-4-carboxamide Hydrochloride]: the Ki was 29.4 nM. As for `CN(C)c1nc2c(C(=O)N[C@H]3C[C@H]4CCC[C@@H](C3)N4C)cccc2o1` [Example 7, Endo-N-(9-Methyl-9-azabicyclo[3.3.1]non-3-yl)-2-(dimethylamino)benzoxazole-4-carboxamide Hydrochloride], the Ki was determined as 6.1 nM. Consider `CC(C)C[C@H]1CNCCN1c1nc2c(C(=O)NC3CC4CCCC(C3)N4C)cccc2o1` (stereo partly drawn) [Example 77, Endo-N-(9-Methyl-9-azabicyclo[3.3.1]nonan-3-yl)-2-((S)-2-isobutylpiperazine-1-yl)benzoxazole-4-carboxamide Hydrochloride], for which the Ki is 6.4 nM. Regarding `C[C@H]1CNC[C@H](C)N1c1nc2c(C(=O)NC3CN4CCC3CC4)ccc(F)c2o1` (stereo partly drawn) [Example 118, (S)—N-(Quinulidin-8-yl)-2-((2S,6S)-2,6-dimethylpiperazine-1-yl)-7-fluorobenzoxazole-4-carboxamide hydrochloride], the Ki was found to be 26.8 nM. Still for that read-out and setting: in the case of `CC(C)[C@@H]1COCCN1c1nc2c(C(=O)NC3CC4CCCC(C3)N4C)cccc2o1` (stereo partly drawn) [Example 152, Endo-N-(9-Methyl-9-azabicyclo[3.3.1]nonan-3-yl)-2-((R)-3-isopropylmorpholino)benzoxazole-4-carboxamide Hydrochloride] it was 75 nM; in that of `CCN(CC)c1nc2c(C(=O)N[C@@H]3CN4CCC3CC4)cccc2o1` [Example 115, (S)—N-(quinuclidine-8-yl)-2-diethylaminobenzoxazole-4-carboxamide Hydrochloride], 4.8 nM; in that of `Cc1nc[nH]c1CNC(=O)c1cc(Cl)cc2oc(N)nc12` [Example 145, N-((4-methyl-1H-imidazol-5-yl)methyl)-2-amino-6-chlorobenzoxazole-4-carboxamide], 127 nM. Same read-out and setting: in the case of `CN1[C@@H]2CCC[C@H]1C[C@@H](NC(=O)c1cccc3oc(N4CCn5c(nnc5C(F)(F)F)C4)nc13)C2` [Example 54, Endo-N-(9-Methyl-9-azabicyclo[3.3.1]nonan-3-yl)-2-(3-(trifluoromethyl)-5,6-dihydro-[1,2,4]triazolo[4,3-a]pyrazin-7(8H)-yl)benzoxazole-4-carboxamide Hydrochloride] it was 118 nM; in that of `C[C@H]1C(=O)NCCN1c1nc2c(C(=O)NC3CC4CCCC(C3)N4C)cccc2o1` (stereo partly drawn) [Example 98, Endo-N-(9-Methyl-9-azabicyclo[3.3.1]nonan-3-yl)-2-((S)-2-methyl-3-oxopiperazine-1-yl)benzoxazole-4-carboxamide Hydrochloride], 14.6 nM. Same read-out and setting: in the case of `CC(C)[C@H]1CN(c2nc3c(C(=O)NC4CC5CCCC(C4)N5C)cccc3o2)CCN1` (stereo partly shown) [Example 78, Hydrochloride] it was 25.8 nM; in that of `CN1CCN(c2nc3c(C(=O)N[C@H]4C[C@H]5CCC[C@@H](C4)N5C)cccc3o2)C(c2ccccc2)C1` (mixture of isomers) [Example 23, Endo-N-(9-Methyl-9-azabicyclo[3.3.1]non-3-yl)-2-(4-methyl-2-phenylpiperazin-1-yl)benzoxazole-4-carboxamide Dihydrochloride], 25.2 nM; in that of `CN1[C@@H]2CCC[C@H]1C[C@@H](NC(=O)c1cccc3oc(Nc4ccncc4)nc13)C2` [Example 27, Endo-N-(9-Methyl-9-azabicyclo[3.3.1]non-3-yl)-2-(pyridine-4-ylamino)benzoxazole-4-carboxamide Dihydrochloride], 4.5 nM. For `Nc1nc2c(C(=O)NC3CN4CCC3CC4)ccc(F)c2o1` [Example 112, (S)—N-(quinulidin-8-yl)-2-amino-7-fluorobenzoxazole-4-carboxamide Hydrochloride], the Ki worked out at 33.3 nM.
